Measured values reported in ChEMBL document CHEMBL1268995, “The structure and antimalarial activity of dispiro-1,2,4,5-tetraoxanes derived from (+)-dihydrocarvone” (Bioorg Med Chem Lett, 2010).
In brackets after ≈: the same amount, converted by molar mass.

Experiments:
Plasmodium falciparum [1] = assay: Antimalarial activity against chloroquine-sensitive Plasmodium falciparum NF54; type: functional, organism-based
Plasmodium falciparum [2] = assay: Antimalarial activity against chloroquine-resistant Plasmodium falciparum K1; type: functional, organism-based
Plasmodium berghei = assay: Antimalarial activity against Plasmodium berghei infected in NMRI mice (Mus musculus) assessed as reduction in parasitaemia at 100 mg/kg, perorally administered 1 day post-infection measured 3 day post-infection; type: functional; parameters: scale not given: the % may be the effect or the level left; details: route oral
[3] = Partition coefficient, log P of the compound; type: physicochemical; details: octanol/water

Structure (SMILES)	IC50 (Plasmodium falciparum [1])	IC50 (Plasmodium falciparum [2])	Activity (Plasmodium berghei)	logP [3]
C=C(C)[C@@H]1CC[C@@H](C)C2(C1)OOC1(C[C@H](C(=C)C)CC[C@H]1C)OO2 (stereo partly specified)	6.6 ng/mL (≈ 0.0196 µM)	6.9 ng/mL (≈ 0.0205 µM)	99.9%	–
CC(=O)[C@@H]1CC[C@@H](C)C2(C1)OOC1(C[C@H](C(C)=O)CC[C@H]1C)OO2 (stereo partly specified)	2.1 ng/mL (≈ 0.00617 µM)	2.1 ng/mL (≈ 0.00617 µM)	63%	–
CC(N)[C@@H]1CC[C@@H](C)C2(C1)OOC1(C[C@H](C(C)N)CC[C@H]1C)OO2 (stereo partly specified)	82 ng/mL (≈ 0.239 µM)	54 ng/mL (≈ 0.158 µM)	99.1%	–
C/C(=N\O)[C@@H]1CC[C@@H](C)C2(C1)OOC1(C[C@H](/C(C)=N/O)CC[C@H]1C)OO2 (stereo partly specified)	18 ng/mL (≈ 0.0486 µM)	30 ng/mL (≈ 0.081 µM)	<40%	–
C[C@@H]1CC[C@H]2[C@@H](C)C(=O)O[C@@H]3O[C@@]4(C)CC[C@@H]1[C@]32OO4 [ARTEMISININ]	3.4 ng/mL (≈ 0.012 µM)	–	98%	2.2
C[C@@H]1CCCCC12OOC1(CCCC[C@@H]1C)OO2 (stereo partly specified) [WR-148999]	–	–	99.7%	–
